Test results from patent US20230365561A1, “BETA-LACTAMASE INHIBITORS AND THEIR PREPARATION” (NINGXIA ACADEMY OF AGRICUL TURE AND FORESTRY SCIENCES, priority 2020, published 2023).
Structures can show the parent of a compound that is named as a salt. Where two headings read alike, the source gives them in different places.

What was measured:
Format in all cases: cell-based
[1] = system: P. aeruginosa clinical isolate (strain 9); assay: MIC by broth microdilution (alone and in combination with meropenam), strain 9; conditions: Pseudomonas aeruginosa, compound alone
How it was run: (§1)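 Visual MIC endpoint after 18-24 h at 37° C, inoculum about 5x10^5 CFU/mL in cation-adjusted MHB II. Compounds and meropenem tested singly and together, the partner compound constant at 4 µg/mL against a meropenem series of 0.125-64 mg/L.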

[2] = system: E. cloacae 700323 (strain 6); assay: MIC by broth microdilution (alone and in combination with meropenam), strain 6; conditions: Enterobacter cloacae, compound alone
How it was run: as §1

[3] = system: K. pneumoniae clinical isolate (strain 3); assay: MIC by broth microdilution (alone and in combination with meropenam), strain 3; conditions: Klebsiella pneumoniae, compound alone
How it was run: as §1

[4] = system: K. pneumoniae 700603 (strain 4); assay: MIC by broth microdilution (alone and in combination with meropenam), strain 4; conditions: Klebsiella pneumoniae, compound alone
How it was run: as §1

[5] = system: A. baumannii 19606 (strain 8); assay: MIC by broth microdilution (alone and in combination with meropenam), strain 8; conditions: Acinetobacter baumannii, compound alone
How it was run: as §1

[6] = system: P. aeruginosa 9027 (strain 10); assay: MIC by broth microdilution (alone and in combination with meropenam), strain 10; conditions: Pseudomonas aeruginosa, compound alone
How it was run: as §1

[7] = system: E. cloacae clinical isolate (strain 5); assay: MIC by broth microdilution (alone and in combination with meropenam), strain 5; conditions: Enterobacter cloacae, compound alone
How it was run: as §1

[8] = system: A. baumannii clinical isolate (strain 7); assay: MIC by broth microdilution (alone and in combination with meropenam), strain 7; conditions: Acinetobacter baumannii, compound alone
How it was run: as §1

E. coli 8739 (strain 2) = assay: MIC by broth microdilution (alone and in combination with meropenam), strain 2; conditions: Escherichia coli, compound alone
How it was run: as §1

[9] = system: E. coli clinical isolate (strain 1); assay: MIC by broth microdilution (alone and in combination with meropenam), strain 1; conditions: Escherichia coli, compound alone
How it was run: as §1

[10] = read-out: MIC, antibacterial activity of example alone

Row | MIC [1, 10] [µg/mL] | MIC [2, 10] [µg/mL] | MIC [3, 10] [µg/mL] | MIC [4, 10] [µg/mL] | MIC [5, 10] [µg/mL] | MIC [6, 10] [µg/mL] | MIC [7, 10] [µg/mL] | MIC [8, 10] [µg/mL] | MIC (E. coli 8739 (strain 2); [10]) [µg/mL] | MIC [9, 10] [µg/mL] | MIC ([1]; read-out: MIC) [µg/mL] | MIC ([2]; read-out: MIC) [µg/mL] | MIC ([3]; read-out: MIC) [µg/mL] | MIC ([4]; read-out: MIC) [µg/mL] | MIC ([5]; read-out: MIC) [µg/mL] | MIC ([6]; read-out: MIC) [µg/mL] | MIC ([7]; read-out: MIC) [µg/mL] | MIC ([8]; read-out: MIC) [µg/mL] | MIC (E. coli 8739 (strain 2); read-out: MIC) [µg/mL] | MIC ([9]; read-out: MIC) [µg/mL] | Compound
1 | > 64 | > 64 | > 64 | > 64 | > 64 | > 64 | > 64 | > 64 | > 64 | > 64 | – | – | – | – | – | – | – | – | – | – | N=C(NC(=O)c1ccco1)[C@@H]1CC[C@@H]2CN1C(=O)N2OS(=O)(=O)O [Ex.1, (2S,5R)-2-(N-(furan-2-carbonyl)carbamimidoyl)-7-oxo-1,6-diazabicyclo[3.2.1]octan-6-yl Hydrogen Sulfate]
2 | > 64 | > 64 | > 64 | > 64 | > 64 | > 64 | > 64 | > 64 | > 64 | > 64 | – | – | – | – | – | – | – | – | – | – | CN1CC[C@H](C(=O)NC(=N)[C@@H]2CC[C@@H]3CN2C(=O)N3OS(=O)(=O)[O-])C1.[Na+] [Ex.32, Sodium (2S,5R)-2-(N-((S)-1-methylpyrrolidine-3-carbonyl)carbamimidoyl)-7-oxo-1,6-diazabicyclo[3.2.1]octan-6-yl Sulfate]
3 | > 64 | > 64 | > 64 | > 64 | > 64 | > 64 | > 64 | > 64 | > 64 | > 64 | – | – | – | – | – | – | – | – | – | – | N=C(NC(=O)c1cnco1)[C@@H]1CC[C@@H]2CN1C(=O)N2OS(=O)(=O)[O-].[Na+] [Ex.21, Sodium (2S,5R)-2-(N-(oxazole-5-carbonyl)carbamimidoyl)-7-oxo-1,6-diazabicyclo[3.2.1]octan-6-yl Sulfate]
4 | > 64 | > 64 | > 64 | > 64 | > 64 | > 64 | > 64 | > 64 | > 64 | > 64 | – | – | – | – | – | – | – | – | – | – | N=C(NC(=O)c1cscn1)[C@@H]1CC[C@@H]2CN1C(=O)N2OS(=O)(=O)[O-].[Na+] [Ex.16, Sodium (2S,5R)-7-oxo-2-(N-(thiazole-4-carbonyl)carbamimidoyl)-1,6-diazabicyclo[3.2.1]octan-6-yl Sulfate]
5 | > 64 | > 64 | > 64 | > 64 | > 64 | > 64 | > 64 | > 64 | > 64 | > 64 | – | – | – | – | – | – | – | – | – | – | CN1CCN(CC(=O)NC(=N)[C@@H]2CC[C@@H]3CN2C(=O)N3OS(=O)(=O)[O-])CC1.[Na+] [Ex.42, Sodium (2S,5R)-2-(N-(2-(4-methylpiperazin-1-yl)acetyl)carbamimidoyl)-7-oxo-1,6-diazabicyclo[3.2.1]octan-6-yl Sulfate]
6 | > 64 | > 64 | > 64 | > 64 | > 64 | > 64 | > 64 | > 64 | > 64 | > 64 | – | – | – | – | – | – | – | – | – | – | N=C(NC(=O)c1cocn1)[C@@H]1CC[C@@H]2CN1C(=O)N2OS(=O)(=O)[O-].[Na+] [Ex.20, Sodium (2S,5R)-2-(N-(oxazole-4-carbonyl)carbamimidoyl)-7-oxo-1,6-diazabicyclo[3.2.1]octan-6-yl Sulfate]
7 | – | – | – | – | – | – | – | – | – | – | > 64 | > 64 | > 64 | > 64 | > 64 | > 64 | > 64 | > 64 | > 64 | > 64 | N=C(N)NCCC(=O)NC(=N)[C@@H]1CC[C@@H]2CN1C(=O)N2OS(=O)(=O)O [Ex.51, (2S,5R)-2-(N-(3-guanidinopropanoyl)carbamimidoyl)-7-oxo-1,6-diazabicyclo[3.2.1]octan-6-yl Hydrogen Sulfate]
8 | > 64 | > 64 | > 64 | > 64 | > 64 | > 64 | > 64 | > 64 | > 64 | > 64 | – | – | – | – | – | – | – | – | – | – | N=C(NC(=O)c1csc(C(F)(F)F)n1)[C@@H]1CC[C@@H]2CN1C(=O)N2OS(=O)(=O)[O-].[Na+] [Ex.24, Sodium (2S,5R)-7-oxo-2-(N-(2-(trifluoromethyl)thiazole-4-carbonyl)carbamimidoyl)-1,6-diazabicyclo[3.2.1]octan-6-yl Sulfate]
9 | > 64 | > 64 | > 64 | > 64 | > 64 | > 64 | > 64 | > 64 | > 64 | > 64 | – | – | – | – | – | – | – | – | – | – | N=C(NC(=O)c1cccnn1)[C@@H]1CC[C@@H]2CN1C(=O)N2OS(=O)(=O)O [Ex.12, (2S,5R)-7-oxo-2-(N-(pyridazine-3-carbonyl)carbamimidoyl)-1,6-diazabicyclo[3.2.1]octan-6-yl Hydrogen Sulfate]
